US10457687B2, “Aminoacid derivatives, a process for their preparation and pharmaceutical compositions containing them” (LES LABORATOIRES SERVIER, priority 2015, dated 2019)

Biological target: Mcl-1 protein (Homo sapiens, UniProt Q07820)
Assay: Inhibition of Mcl-1 by the fluorescence polarisation technique (Method 1 or Method 2)
Format: binding
Settings: for percentage fluorescence polarisation inhibition, Mcl-1 FP: partial inhibitors; for IC50: fluorescence polarisation, Fluorescein labelled ligand, Method 1 (not underlined) or Method 2 (underlined), read-out: IC50 (μM) Mcl-1 FP
Method: The relative binding potency of each compound was determined via Fluorescence Polarisation (FP).
An 11 point serial dilution of each compound was prepared in DMSO and 2 μl transferred into flat bottomed, low binding, 384-well plate (final DMSO concentration 5%). 38 μl of buffer (10 mM 4-(2-hydroxyethyl)-1-piperazineethanesulfonic acid [HEPES], 150 mM NaCl, 0.05% Tween 20, pH 7.4), containing the Fluorescein labelled ligand (final concentration 1 nM) and Mcl-1 protein (final concentration 5 nM) was then added.
An 11 point serial dilution of each compound was prepared in DMSO and 2 μl transferred into flat bottomed, low binding, 384-well plate (final DMSO concentration 5%). 38 μl of buffer (20 mM Na2HPO4, 1 mM EDTA, 50 mM NaCl, pH 7.4), containing the Fluorescein labelled ligand (final concentration 10 nM) and Mcl-1 protein (final concentration 10 nM) was then added.

Mcl-1 protein, sequence (Q07820 whole entry): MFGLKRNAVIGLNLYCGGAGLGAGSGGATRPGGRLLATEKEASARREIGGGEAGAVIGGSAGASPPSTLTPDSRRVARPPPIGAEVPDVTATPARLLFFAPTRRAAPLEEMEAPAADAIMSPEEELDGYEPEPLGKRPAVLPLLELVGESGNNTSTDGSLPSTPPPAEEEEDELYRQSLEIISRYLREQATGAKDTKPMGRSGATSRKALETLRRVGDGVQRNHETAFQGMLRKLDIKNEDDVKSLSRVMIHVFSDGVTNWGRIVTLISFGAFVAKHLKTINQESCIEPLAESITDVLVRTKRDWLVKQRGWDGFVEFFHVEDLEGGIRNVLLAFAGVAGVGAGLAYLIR

| SMILES | IC50 [µM] | other results |
| --- | --- | --- |
| CCc1sc2ncnc(N[C@H](Cc3ccccc3)C(=O)O)c2c1-c1cccc2c1c(Cl)cn2CCN(C)C [Example 231, N-((5Ra)-5-{3-chloro-1-[2-(dimethylamino)ethyl]-1H-indol-4-yl}-6-ethyl-thieno[2,3-d]pyrimidin-4-yl)-D-phenylalanine] |  | percentage fluorescence polarisation inhibition, Mcl-1 FP (@ 50 μM test compound): 56.75% @ 50 μM |
| CC(O)c1sc2ncnc(N[C@H](Cc3ccccc3)C(=O)O)c2c1-c1cccc2ccccc12 (single isomer, unassigned) [Example 203, N-[6-(1-hydroxyethyl)-5-(naphthalen-1-yl)thieno[2,3-d]pyrimidin-4-yl]-D-phenylalanine] |  | percentage fluorescence polarisation inhibition, Mcl-1 FP (@ 100 μM test compound, 100 µM): 71.85% @ 100 μM |
| CC(C)(O)c1sc2ncnc(NC(Cc3ccccc3)C(=O)O)c2c1-c1cccc2ccccc12 [Example 210, N-[6-(2-hydroxypropan-2-yl)-(5Sa)-5-(naphthalen-1-yl)thieno[2,3-d]pyrimidin-4-yl]-D-phenylalanine] | 8.36 |  |
| COc1ccccc1-c1nccc(COc2ccccc2CC(Nc2ncnc3sc(-c4ccc(F)cc4)c(-c4ccc(OCCN5CCN(C)CC5)c(Cl)c4C)c23)C(=O)O)n1 [Example 7, N-[(5Sa)-5-{3-chloro-2-methyl-4-[2-(4-methylpiperazin-1-yl)ethoxy]phenyl}-6-(4-fluorophenyl)thieno[2,3-d]pyrimidin-4-yl]-2-{[2-(2-methoxyphenyl)pyrimidin-4-yl]methoxy}-D-phenylalanine] | 0.008 |  |
| CCc1sc2ncnc(N[C@@H](Cc3ccccc3)C(=O)O)c2c1-c1ccc(OCCN(C)C)c(Cl)c1C [Example 58, N-((5Ra)-5-{3-chloro-4-[2-(dimethylamino)ethoxy]-2-methylphenyl}-6-ethylthieno[2,3-d]pyrimidin-4-yl)-L-phenylalanine] |  | percentage fluorescence polarisation inhibition, Mcl-1 FP (@ 10 μM test compound): 52.8% @ 10 μM |
| CCc1sc2ncnc(NC(Cc3ccccc3OCCN3CCN(C)CC3)C(=O)O)c2c1-c1cccc(Cl)c1C [Example 154, N-[(5Sa)-5-(3-chloro-2-methylphenyl)-6-ethylthieno[2,3-d]pyrimidin-4-yl]-2-[2-(4-methylpiperazin-1-yl)ethoxy]-D-phenylalanine] | 2.32 |  |
| CCc1sc2ncnc(NC(Cc3ccccc3O)C(=O)O)c2c1-c1cccc2ccccc12 [Example 175, N-[6-ethyl-(5Ra)-5-(naphthalen-1-yl)thieno[2,3-d]pyrimidin-4-yl]-2-hydroxy-D-phenylalanine] | 3.86 |  |
| CCc1sc2ncnc(N[C@H](Cc3c[nH]c4ccccc34)C(=O)O)c2c1-c1cccc2ccccc12 [Example 184, N-[6-ethyl-(5Ra)-5-(naphthalen-1-yl)thieno[2,3-d]pyrimidin-4-yl]-D-tryptophan] |  | percentage fluorescence polarisation inhibition, Mcl-1 FP (@ 200 μM test compound): 76.8% @ 200 μM |
| CC(O)c1sc2ncnc(N[C@H](Cc3ccccc3)C(=O)O)c2c1-c1cccc2ccccc12 (single isomer, unassigned) [Example 204, N-[6-(1-hydroxyethyl)-5-(naphthalen-1-yl)thieno[2,3-d]pyrimidin-4-yl]-D-phenylalanine] |  | percentage fluorescence polarisation inhibition, Mcl-1 FP (@ 100 μM test compound, 100 µM): 44.8% @ 100 μM |
| CCc1sc2ncnc(NC(Cc3ccccc3)C(=O)O)c2c1-c1cccc2[nH]ccc12 [Example 74, N-[6-ethyl-(5Ra)-5-(1H-indol-4-yl)thieno[2,3-d]pyrimidin-4-yl]-D-phenylalanine] | 0.621 |  |
| CCc1sc2ncnc(NC(Cc3ccccc3)C(=O)O)c2c1-c1ccnc(Cl)c1C [Example 78, N-[(5Sa)-5-(2-chloro-3-methylpyridin-4-yl)-6-ethylthieno[2,3-d]pyrimidin-4-yl]-D-phenylalanine] | 0.135 |  |
| CCc1sc2ncnc(N[C@H](Cc3ccccc3C#N)C(=O)O)c2c1-c1cccc(Cl)c1C [Example 126, N-[(5Ra)-5-(3-chloro-2-methylphenyl)-6-ethylthieno[2,3-d]pyrimidin-4-yl]-2-cyano-D-phenylalanine] |  | percentage fluorescence polarisation inhibition, Mcl-1 FP (@ 50 μM test compound): 41.2% @ 50 μM |
| CCc1sc2ncnc(N[C@H](Cc3ccccc3OCCN3CCN(C)CC3)C(=O)O)c2c1-c1cccc(Cl)c1C [Example 153, N-[(5Ra)-5-(3-chloro-2-methylphenyl)-6-ethylthieno[2,3-d]pyrimidin-4-yl]-2-[2-(4-methylpiperazin-1-yl)ethoxy]-D-phenylalanine] |  | percentage fluorescence polarisation inhibition, Mcl-1 FP (@ 50 μM test compound): 75.7% @ 50 μM |
| C=Cc1sc2ncnc(NC(Cc3ccccc3)C(=O)O)c2c1-c1cccc2ccccc12 [Example 103, N-[6-ethenyl-(5Ra)-5-(naphthalen-1-yl)thieno[2,3-d]pyrimidin-4-yl]-D-phenylalanine] | 0.715 |  |
| CCc1sc2ncnc(NC(Cc3ccccc3C(F)(F)F)C(=O)O)c2c1-c1cccc(Cl)c1C [Example 138, N-[(5Sa)-5-(3-chloro-2-methylphenyl)-6-ethylthieno[2,3-d]pyrimidin-4-yl]-2-(trifluoromethyl)-D-phenylalanine] | 0.664 |  |
| CCc1sc2ncnc(NC(Cc3ccccc3)C(=O)O)c2c1-c1cccc(OC)c1C [Example 75, N-[6-ethyl-(5Sa)-5-(3-methoxy-2-methylphenyl)thieno[2,3-d]pyrimidin-4-yl]-D-phenylalanine] | 0.28 |  |
| Cc1c(Cl)cccc1-c1c(C(C)C)sc2ncnc(N[C@@H](Cc3ccccc3)C(=O)O)c12 [Example 218, N-[(5Sa)-5-(3-chloro-2-methylphenyl)-6-(propan-2-yl)thieno[2,3-d]pyrimidin-4-yl]-L-phenylalanine] |  | percentage fluorescence polarisation inhibition, Mcl-1 FP (@ 50 μM test compound): 71.5% @ 50 μM |
| CCc1sc2ncnc(N[C@H](Cc3ccccc3[N+](=O)[O-])C(=O)O)c2c1-c1cccc(Cl)c1C [Example 135, N-[(5Ra)-5-(3-chloro-2-methylphenyl)-6-ethylthieno[2,3-d]pyrimidin-4-yl]-2-nitro-D-phenylalanine] |  | percentage fluorescence polarisation inhibition, Mcl-1 FP (@ 50 μM test compound): 75.25% @ 50 μM |
| CCc1sc2ncnc(NC(Cc3cccc(F)c3)C(=O)O)c2c1-c1cccc2ccccc12 [Example 179, N-[6-ethyl-(5Sa)-5-(naphthalen-1-yl)thieno[2,3-d]pyrimidin-4-yl]-3-fluoro-D-phenylalanine] | 0.881 |  |
| CCc1sc2ncnc(NC(CCc3ccccc3)C(=O)O)c2c1-c1cccc2ccccc12 [Example 171, (2R)-2-{[6-ethyl-(5Ra)-5-(naphthalen-1-yl)thieno[2,3-d]pyrimidin-4-yl]amino}-4-phenylbutanoic acid] | 2.77 |  |
| CCc1sc2ncnc(N[C@H](CC3CC3)C(=O)O)c2c1-c1cccc2ccccc12 [Example 159, 3-cyclopropyl-N-[6-ethyl-5-(naphthalen-1-yl)thieno[2,3-d]pyrimidin-4-yl]-D-alanine] | 1.77 |  |
| CC=Cc1sc2ncnc(NC(Cc3ccccc3)C(=O)O)c2c1-c1cccc2ccccc12 [Example 108, N-{(5Sa)-5-(naphthalen-1-yl)-6-[(1E)-prop-1-en-1-yl]thieno[2,3-d]pyrimidin-4-yl}-D-phenylalanine] | 0.079 |  |

Continued, in another order:

| IC50 [µM] | SMILES | other results |
| --- | --- | --- |
| 1.39 | CCc1sc2ncnc(NC(Cc3ccccc3)C(=O)O)c2c1-c1cccc2c1c(Cl)cn2CCN1CCCCC1 [Example 235, N-((5Sa)-5-{3-chloro-1-[2-(piperidin-1-yl)ethyl]-1H-indol-4-yl}-6-ethyl-thieno[2,3-d]pyrimidin-4-yl)-D-phenylalanine] |  |
| 13.5 | CCc1sc2ncnc(NC(Cc3ccccc3)C(=O)O)c2c1-c1cccc2c1c(Cl)cn2CCN1CCOCC1 [Example 236, N-((5Ra)-5-{3-chloro-1-[2-(morpholin-4-yl)ethyl]-1H-indol-4-yl}-6-ethyl-thieno[2,3-d]pyrimidin-4-yl)-D-phenylalanine] |  |
| 1.98 | CCOC(=O)C(Cc1ccccc1OCc1ccnc(-c2ccccc2OCCOC)n1)Nc1ncnc2sc(-c3ccc(F)cc3)c(-c3ccc(OCCN(C)C)c(Cl)c3C)c12 [Example 260, ethyl N-[(5Sa)-5-{3-chloro-4-[2-(dimethylamino)ethoxy]-2-methylphenyl}-6-(4-fluorophenyl)thieno[2,3-d]pyrimidin-4-yl]-2-({2-[2-(2-methoxyethoxy)phenyl]pyrimidin-4-yl}methoxy)-D-phenylalaninate] |  |
| 0.569 | CCc1sc2ncnc(NC(Cc3ccccc3)C(=O)O)c2c1-c1cccc2c1c(Cl)cn2CCN1CCOCC1 [Example 237, N-((5Sa)-5-{3-chloro-1-[2-(morpholin-4-yl)ethyl]-1H-indol-4-yl}-6-ethyl-thieno[2,3-d]pyrimidin-4-yl)-D-phenylalanine] |  |
| 2.18 | CCc1sc2ncnc(NC(Cc3ccccn3)C(=O)O)c2c1-c1cccc2c1c(Cl)cn2CCN1CCN(C)CC1 [Example 248, N-((5Sa)-5-{3-chloro-1-[2-(4-methylpiperazin-1-yl)ethyl]-1H-indol-4-yl}-6-ethyl-thieno[2,3-d]pyrimidin-4-yl)-3-pyridin-2-yl-D-alanine] |  |
| 0.668 | O=C(O)[C@@H](Cc1ccccc1)Nc1ncnc2sc(I)c(-c3cccc4ccccc34)c12 [Example 211, N-[6-iodo-5-(naphthalen-1-yl)thieno[2,3-d]pyrimidin-4-yl]-D-phenylalanine] |  |
| 0.065 | Cc1c(Cl)cccc1-c1c(C2CC2)sc2ncnc(NC(Cc3ccccc3)C(=O)O)c12 [Example 217, N-[(5Sa)-5-(3-chloro-2-methylphenyl)-6-cyclopropyl-thieno[2,3-d]pyrimidin-4-yl]-D-phenylalanine] |  |
| 0.223 | CCCc1sc2ncnc(NC(Cc3ccccc3)C(=O)O)c2c1-c1cccc2ccccc12 [Example 252, N-[(5Sa)-5-(naphthalen-1-yl)-6-propylthieno[2,3-d]pyrimidin-4-yl]-D-phenylalanine] |  |
